ChEMBL document CHEMBL1147585, “Potent imidazole and triazole CB1 receptor antagonists related to SR141716” (Bioorg Med Chem Lett, 2004)

Target: T1, Cannabinoid receptor 1 (Homo sapiens, UniProt P21554)
Experiment: Evaluated for binding affinity towards human Cannabinoid receptor 1 at a concentration of 20 uM

T1 sequence (P21554 whole entry): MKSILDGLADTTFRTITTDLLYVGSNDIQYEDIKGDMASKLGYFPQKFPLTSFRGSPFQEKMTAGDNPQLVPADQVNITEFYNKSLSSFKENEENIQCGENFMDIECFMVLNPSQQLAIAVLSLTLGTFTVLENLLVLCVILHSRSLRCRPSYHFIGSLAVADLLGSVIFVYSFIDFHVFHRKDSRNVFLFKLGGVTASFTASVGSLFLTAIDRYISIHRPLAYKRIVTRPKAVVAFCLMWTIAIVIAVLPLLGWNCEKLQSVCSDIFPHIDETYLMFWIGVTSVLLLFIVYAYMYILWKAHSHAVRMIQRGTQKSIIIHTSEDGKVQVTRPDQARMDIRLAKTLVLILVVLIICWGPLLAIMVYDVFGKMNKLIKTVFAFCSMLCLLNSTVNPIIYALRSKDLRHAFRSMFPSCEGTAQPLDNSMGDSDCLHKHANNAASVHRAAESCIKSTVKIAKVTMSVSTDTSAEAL

| Compound | inhibition [%] |
| --- | --- |
| CN(C)CCNC(=O)c1nc(-c2ccc(Cl)cc2Cl)n(-c2ccc(Cl)cc2)n1 | 49 |
| CN(C)CCNC(=O)c1cn(-c2ccc(Cl)cc2)c(-c2ccc(Cl)cc2Cl)n1 | 48 |
| O=C(NN1CCCCCC1)c1nc(-c2ccc(Cl)cc2)n(-c2ccc(Cl)cc2Cl)n1 | 43 |

More lines, now with the values ahead:

| inhibition [%] | Compound |
| --- | --- |
| 70 | Cc1c(C(=O)NCCN(C)C)nn(-c2ccc(Cl)cc2Cl)c1-c1ccc(Cl)cc1 |
| 69 | Cc1c(C(=O)NCCO)nn(-c2ccc(Cl)cc2Cl)c1-c1ccc(Cl)cc1 |

Target: T1, Cannabinoid receptor 1
Experiment: Evaluated for binding affinity towards human Cannabinoid receptor 1

| Compound | Ki [nM] |
| --- | --- |
| O=C(NN1CCCCC1)c1cn(-c2ccc(Cl)cc2)c(-c2ccc(Cl)cc2Cl)n1 | 85 |
| COc1cc(Cl)ccc1-c1nc(C(=O)NN2CC3CCCC3C2)nn1-c1ccc(Cl)cc1Cl (configuration not stated) | 270 |
| O=C(NC1CCN(Cc2ccccc2)C1)c1nc(-c2ccc(Cl)cc2Cl)n(-c2ccc(Cl)cc2)n1 (configuration not stated) | 29 |
| O=C(NC1CCCCC1)c1cn(-c2ccc(Cl)cc2)c(-c2ccc(Cl)cc2Cl)n1 | 48 |
| O=C(NN1CC2CCCC2C1)c1nc(-c2ccc(Cl)cc2Cl)n(-c2ccc(Cl)cc2)n1 (configuration not stated) | 137 |
| O=C(NC1CCc2ccccc21)c1nc(-c2ccc(Cl)cc2Cl)n(-c2ccc(Cl)cc2)n1 (configuration not stated) | 101 |
| CC1CCC(NC(=O)c2nc(-c3ccc(Cl)cc3Cl)n(-c3ccc(Cl)cc3)n2)CC1 (configuration not stated) | 94 |
| CC(NC(=O)c1nc(-c2ccc(Cl)cc2Cl)n(-c2ccc(Cl)cc2)n1)c1ccc(Cl)cc1 (configuration not stated) | 66 |
| N#Cc1c(C(=O)NN2CC3CCCC3C2)nc(-c2ccc(Cl)cc2Cl)n1-c1ccc(Cl)cc1 (configuration not stated) | 9 |
| O=C(NN1CC2CCCC2C1)c1cn(-c2ccc(Cl)cc2)c(-c2ccc(Cl)cc2Cl)n1 (configuration not stated) | 66 |
| Cc1c(C(=O)NN2CCCCCC2)nn(-c2ccc(Cl)cc2Cl)c1-c1ccc(Cl)cc1 | 14 |
| O=C(NN1CC2CCCC2C1)c1nc(-c2ccc(Cl)cc2Cl)n(-c2ccc(Cl)cc2)c1Br (configuration not stated) | 11 |
| Cc1c(C(=O)NC(C)c2ccc(Cl)cc2)nc(-c2ccc(Cl)cc2Cl)n1-c1ccc(Cl)cc1 (configuration not stated) | 33 |
| O=C(NN1CCCCCC1)c1cn(-c2ccc(Cl)cc2)c(-c2ccc(Cl)cc2Cl)n1 | 78 |
| C#Cc1c(C(=O)NN2CC3CCCC3C2)nc(-c2ccc(Cl)cc2Cl)n1-c1ccc(Cl)cc1 (configuration not stated) | 770 |

The next lines start with the values.

| Ki [nM] | Compound |
| --- | --- |
| 32 | O=C(c1nc(-c2ccc(Cl)cc2)n(-c2ccc(Cl)cc2Cl)n1)N1CCN(c2cccc(C(F)(F)F)c2)CC1 |
| 85 | Cc1c(C(=O)Nc2ccncc2)nn(-c2ccc(Cl)cc2Cl)c1-c1ccc(Cl)cc1 |
| 5 | Cc1c(C(=O)NN2CC3CCCC3C2)nn(-c2ccc(Cl)cc2Cl)c1-c1ccc(Cl)cc1 (configuration not stated) |
| 91 | Cc1c(C(=O)NCCc2ccc(F)cc2)nn(-c2ccc(Cl)cc2Cl)c1-c1ccc(Cl)cc1 |
| 100 | Cc1c(C(=O)N(C)C2CCCCC2)nn(-c2ccc(Cl)cc2Cl)c1-c1ccc(Cl)cc1 |
| 41 | Cc1c(C(=O)NC(C)C(C)C)nn(-c2ccc(Cl)cc2Cl)c1-c1ccc(Cl)cc1 (configuration not stated) |
| 42 | Cc1c(C(=O)NC2CCCCC2)nn(-c2ccc(Cl)cc2Cl)c1-c1ccc(Cl)cc1 |
